{"source": "patent US10117890B2", "about": "“Methods and compositions for treating pain” (Academia Sinica, priority 2012, dated 2018)", "key": {"[1]": {"test_system": "ASIC3-expressing muscle nociceptors", "assay": "Whole-cell patch clamp of acid-induced current in ASIC3-expressing muscle nociceptors", "assay_type": "cell-based, mice", "conditions": "T1-11 10 nM; n=9", "experimental": "To retrograde-trace muscle-afferent DRG neurons, mice were injected with 4% Fluorogold (Fluorochrome, Denver, Colo.) into the GM of both legs for 5 to 7 days, then lumbar DRG neurons were dissected and removed from both sides and placed in a tube for digestion with 1 ml DMEM containing 0.125% type 1 collagenase for 90 min and 0.25% trypsin for 20 min at 37° C. The digested DRG neurons were washed with fetal calf serum (FCS)-free DMEM or DMEM containing 10% FCS during each treatment. Fully digested DRGs were triturated and plated on poly-L-lysine-coated cover slides. Cell cultures were maintained in a 5% CO2 incubator at 37° C.\nWhole-cell patch-clamp recordings of muscle-afferent neurons involved use of Axopatch MultiClamp 700B (Axon Instruments). Neurons with membrane potential >−40 mV were discarded. […]\nVoltage-clamp mode was used to examine the effect of SP on acid-induced currents in ASIC3-expressing DRG neurons. A total of 40 GM and 6 non-GM DRG neurons were recorded in voltage-clamp mode with Vm held at −70 mV. […] To validate whether the modulation of SP on acid-induced current was NK1-receptor specific, acid-induced current was first recorded in a bath containing 10 μM RP67580 for 2 min as a control response. […] Acid-induced current was recorded in a bath containing both SP and genistein (30 μM; Tocris), or both SP and daidzein (30 μM; Tocris) for 3 min. […]"}, "[2]": {"test_system": "acid(ASIC3)-induced chronic muscle pain", "assay": "Acid-induced chronic muscle pain model (repeated intramuscular acid injection, von Frey test)", "assay_type": "in vivo, mice", "conditions": "T1-11 4 pmole, co-injected with acid saline pH 4.0 into gastrocnemius muscle", "from_the_text": "Adult (8- to 12-wk-old) C57/BL6 mice were used. All procedures followed the Guide for the Use of Laboratory Animals (National Academy Press, Washington D.C., USA) and were approved by the Institutional Animal Care and Use Committee of Academia Sinica. We aimed to minimize the number of animals used and their suffering without compromising the quality of the experiments. The generation and genotyping of Tac1^−/− mice and Asic3^−/− mice were as described. Both null mutant mice were backcrossed to C57/BL6 for 10 generations to establish a congenic strain. Congenic Tac1^−/− Asic3^−/− mice were offspring of Tacl^+/− and Asic3^+/− intercrosses.\nMice received an intramuscular acid injection in the gastrocnemius muscle (GM) containing 20 μl acid saline (pH 4.0) with or without (Sar^9, Met(O2)^11)-substance P (SP; 4, 10, or 40 μM) or 100 μM RP67580 or 200 μM XE991. Mechanical hyperalgesia was assessed by applying a 0.2-mN von Frey filament to the plantar surface of both hind paws of mice. Mice were acclimatized in an acrylic cubicle for 60 min before testing. A positive response was defined as the foot lifting when the von Frey filament was applied. For each paw, the filament was applied 5 times at 30-sec intervals. Responses of the paw to mechanical stimuli were measured before injection and at 4 and 24 hr and 5 days after the first acid injection (day 0) and at 4, 24, and 72 hr and 1 week after the second acid injection (day 5). For single-injection experiments, responses to mechanical stimuli were measured before the injection, at 4 hr and at 1, 3, 5, 7, 9, 11, 13, 15 and 22 days after the injection or at 4, 24, 48 hr and 7 and 14 days after the injection. NK1-selective agonist ((Sar^9, Met(O2)^11)—SP) was from Sigma Chemical (St. Louis, Mo.). NK1-selective antagonist (RP67580) and XE991 were from Tocris (Avonmouth, UK). The experimenters were blinded to the experimental manipulations. The person who conducted von Frey test had no information of the mouse genotypes or drug injections."}, "[3]": {"test_system": "acid-induced chronic muscle pain after genistein treatment", "assay": "Modified acid-induced chronic muscle pain model with genistein treatment (fibromyalgia model)", "assay_type": "in vivo, mice", "experimental": "Panel A: a diagram showing that mice were first received an intramuscular injection of genistein (a tyrosine kinase inhibitor) and an acid saline to one side of gastrocnemius muscle, and then pain behaviors were assayed by using von-Frey filament test at 4 hr (D0) and until 29 days (D29) after acid injection. Panel B: is a chart showing that the single acid injection induced long-lasting chronic hyperalgesia in mice with genistein pretreatment (open circles, n=5), but only transient hyperalgesia in mice without genistein pretreatment (filled circles, n=4).\nMice received an intramuscular acid injection in the gastrocnemius muscle (GM) containing 20 μl acid saline (pH 4.0) with or without (Sar^9, Met(O2)^11)-substance P (SP; 4, 10, or 40 μM) or 100 μM RP67580 or 200 μM XE991. Mechanical hyperalgesia was assessed by applying a 0.2-mN von Frey filament to the plantar surface of both hind paws of mice. […] Responses of the paw to mechanical stimuli were measured before injection and at 4 and 24 hr and 5 days after the first acid injection (day 0) and at 4, 24, and 72 hr and 1 week after the second acid injection (day 5). For single-injection experiments, responses to mechanical stimuli were measured before the injection, at 4 hr and at 1, 3, 5, 7, 9, 11, 13, 15 and 22 days after the injection or at 4, 24, 48 hr and 7 and 14 days after the injection. […]"}, "ASIC3": {"test_system": "ASIC3", "assay": "Whole-cell patch clamp of acid-induced current in CHO cells transfected with ASIC3", "assay_type": "cell-based"}}, "note": "“Also recorded” adds a separate entry of the source.", "data": [{"compound": "OC[C@H]1O[C@@H](n2cnc3c(NCc4ccc(O)cc4)ncnc32)[C@H](O)[C@@H]1O", "note": "[T1-11, N^6-(4-hydroxybenzyl)adenosine]", "values": [{"measurement": "acid-induced current in ASIC3-expressing muscle nociceptors", "setting": "[1]", "result": "is enough to inhibit acid-induced current; also recorded: inhibited acid-induced current in all ASIC3-expressing muscle nociceptors"}, {"measurement": "acid-induced hyperalgesia, co-injection of acid and T1-11", "setting": "[2]", "result": "abolished the transient hyperalgesia and prevented the development of chronic hyperalgesia; also recorded: still had analgesic effects"}, {"measurement": "analgesic effect on mice that have developed chronic muscle pain", "setting": "[3]; T1-11 75-150 μg/kg (i.p.)", "result": "dose-dependent analgesic effect"}, {"measurement": "hyperalgesia after genistein pretreatment and single acid injection, co-injection of acid and T1-11", "setting": "[3]; co-injection with acid, n=6, D0 to D29", "result": "only showed the transient hyperalgesia"}, {"measurement": "acid-induced current in CHO cells transfected with ASIC3", "setting": "ASIC3", "result": "blocked"}]}]}
